Assay results reported in patent publication US12528819B2 (priority 2016, dated 2026).
Read-outs that look alike come from different tables or passages of the source.

Assays:
aged-impaired (AI) rats = test: Morris water maze behavioral task, ICV infusion; assay type: in vivo, rat; settings: 100 μg ICV
Procedure: The effects of 6,6 dimethyl-3-(3-hydroxypropyl)thio-1-(thiazol-2-yl)-6,7-dihydro-2-benzothiophen-4(5H)-one on the in vivo spatial memory retention of aged-impaired (AI) rats were assessed in a Morris water maze behavioral task. A water maze is a pool surrounded with a novel set of patterns relative to the maze.
Cognitively impaired aged rats were implanted unilaterally with a cannula into the lateral ventricle. Stereotaxic coordinates were 1.0 mm posterior to bregma, 1.5 mm lateral to midline, and 3.5 mm ventral to the skull surface. After about a week of recovery, the rats were pre-trained in a water maze for 2 days (6 trials per day) to locate a submerged escape platform hidden underneath the surface of the pool, in which the escape platform location varied from day to day. No intracerebroventricular (ICV) infusion was given during pre-training.
After pre-training, rats received ICV infusion of either 100 μg 6,6 dimethyl-3-(3-hydroxypropyl)thio-1-(thiazol-2-yl)-6,7-dihydro-2-benzothiophen-4(5H)-one (n=6) in 5 μl DMSO or vehicle DMSO (n=5) 40 min prior to water maze training and testing. Training consisted of 8 trials per day for 2 days where the hidden escape platform remained in the same location. Rats were given 60 seconds to locate the platform with a 60 seconds inter-trial interval. The rats were given a probe test (120 seconds) 24 hr. after the end of training where the escape platform was removed. During the training, there were 4 blocks, where each block had 4 training trials.
During a test trial 24 hr. after training, the escape platform was removed. The search/swim pattern of the rats was used to measure whether the rats remember where the escape platform was located during pre-trial training in order to test for the long-term memory of the rats. In this trial, “target annulus” is a designated area 1.5 times the size of the escape platform around the area where the platform was located during pre-trial training. “Opposite annulus” is a control area of the same size as the size of the target annulus, which is located opposite to the target annulus in the pool. If the rats had good long term memory, they would tend to search in the area surrounding the location where the platform was during the pre-trial training (i.e., the “target” annulus; and not the “opposite” annulus). “Time in annulus” is the amount of time in seconds that the rat spent in the target or opposite annulus area. “Number (#) of crossings” in annulus is the number of times the rat swam across the target or opposite annulus area.

α5β3γ2 GABAA receptors = biological target: T1, α5β3γ2 GABAA receptors (Homo sapiens, UniProt P18507+P31644); test: Binding activity of test compounds on GABAAR: inhibition of [3H]Ro15-1788 binding, membranes of Ltk cells
T1 construct: membranes
T1 sequence (P31644 32-462): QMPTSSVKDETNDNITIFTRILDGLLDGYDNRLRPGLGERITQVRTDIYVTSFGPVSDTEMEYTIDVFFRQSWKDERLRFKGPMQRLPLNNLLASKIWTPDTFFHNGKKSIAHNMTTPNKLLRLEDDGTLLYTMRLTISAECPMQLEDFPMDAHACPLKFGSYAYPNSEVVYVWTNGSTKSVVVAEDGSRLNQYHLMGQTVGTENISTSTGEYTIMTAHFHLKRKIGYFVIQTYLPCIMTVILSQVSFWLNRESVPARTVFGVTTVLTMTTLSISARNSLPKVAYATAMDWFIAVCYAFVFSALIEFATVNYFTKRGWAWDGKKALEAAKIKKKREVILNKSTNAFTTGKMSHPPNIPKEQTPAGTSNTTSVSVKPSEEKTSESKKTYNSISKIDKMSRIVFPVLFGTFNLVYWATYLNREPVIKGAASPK
T1 sequence (P28472 26-473 partner): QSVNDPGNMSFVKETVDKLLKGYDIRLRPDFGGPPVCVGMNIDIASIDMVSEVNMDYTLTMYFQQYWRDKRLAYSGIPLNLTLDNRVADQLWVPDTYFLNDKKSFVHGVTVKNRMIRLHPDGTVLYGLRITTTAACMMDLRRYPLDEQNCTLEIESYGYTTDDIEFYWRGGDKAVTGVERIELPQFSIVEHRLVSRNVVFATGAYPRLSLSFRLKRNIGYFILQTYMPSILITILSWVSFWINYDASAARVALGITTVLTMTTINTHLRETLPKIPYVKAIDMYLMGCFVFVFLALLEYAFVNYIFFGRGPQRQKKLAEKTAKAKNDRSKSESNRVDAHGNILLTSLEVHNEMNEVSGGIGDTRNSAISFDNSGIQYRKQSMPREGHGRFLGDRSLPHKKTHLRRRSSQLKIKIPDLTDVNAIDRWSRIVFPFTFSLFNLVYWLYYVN
T1 sequence (P18507 40-467 limits assumed): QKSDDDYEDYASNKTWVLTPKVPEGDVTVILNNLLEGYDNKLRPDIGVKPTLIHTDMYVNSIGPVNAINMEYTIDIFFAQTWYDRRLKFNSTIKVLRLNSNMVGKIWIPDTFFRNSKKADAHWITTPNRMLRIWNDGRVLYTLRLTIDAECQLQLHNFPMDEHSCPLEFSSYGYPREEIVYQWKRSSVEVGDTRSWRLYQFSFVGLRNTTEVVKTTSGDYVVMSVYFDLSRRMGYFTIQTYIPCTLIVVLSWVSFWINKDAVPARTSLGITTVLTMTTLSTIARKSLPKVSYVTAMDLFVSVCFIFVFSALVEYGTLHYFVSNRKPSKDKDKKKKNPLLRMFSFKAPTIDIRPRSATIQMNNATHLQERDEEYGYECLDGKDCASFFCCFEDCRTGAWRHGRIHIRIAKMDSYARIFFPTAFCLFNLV
Procedure: (A) Binding activity of test compounds on GABAAR
Tissue culture and Membrane Preparation: The binding was performed on Ltk cells stably expressing GABAA receptors: α1β1γ2, α2β3γ2, α3β3γ2 and α5β3γ2 (provided by Merck Co., NJ, USA). Cells were seeded in 100 mm culture plates in DMEM/F12 medium containing 10% scrum and antibiotics in 5% CO2 and allowed to grow for 1-2 days. GABAAR expression was then induced by dexamethasone as follows: 0.5 μM for 1 day for α5 containing and 2 μM for 3 days for α1, α2 and α3 containing GABAARs. After induction, cells were collected by scraping into Dulbecco's Phosphate buffered saline (DPBS, pH 7.4, Invitrogen, Carlsbad, CA, USA) and centrifuged at 150×g for 10 min. The pellet was washed twice by re-suspension and centrifugation. The cell pellets from at least 5 different preps were combined, suspended in the binding assay buffer (50 mM KH2PO4; 1 mM EDTA; 0.2 M KCl, pH 7.4) and membranes prepared by sonication (3-5 times, 30 sec) using Branson Sonifier 150 (G. Heinmann, Germany). Protein content was determined using BCA assay (Bio-Rad Labs, Reinach, Switzerland) with Bovine Serum Albumin (Sigma Aldrich, St. Louis, MO, USA) as the standard. Aliquots were prepared and stored at −20° C. for further use in binding assays.
Ligand Binding: Saturation binding curves were obtained by incubating membranes with increasing concentrations (0.01-8 nM) of [^3H]Rol5-1788 (Flumazepil, 75-85 Ci/mmol, PerkinElmer, MA, USA), with nonspecific binding measured in the presence of 10 μM diazepam.
All binding assays were performed for 1 h at 4° C. in assay buffer. The total assay volume was 0.5 ml containing 0.2 mg/ml protein for α5 and 0.4 mg/ml for α1, α2, and α3 containing GABAAR membranes. Incubations were terminated by filtration through GF/B filters using a 24-Cell Harvestor (Brandel, Gaithersburg, MD, USA) followed by 3 washes with ice-cold assay buffer. […] Next day, radioactivity was obtained using a scintillation counter (Beckman Coulter, Brea, CA, USA). […]

α5β2γ2 subtype GABAAR = biological target: T2, α5β2γ2 subtype GABAAR (Homo sapiens, UniProt P18507+P31644); test: Positive allosteric modulator activity: potentiation of EC20 GABA current in oocytes; assay type: cell-based; settings: read-out: GABA α5 Functional Data (potentiation), @ 100 nM, reported as ranges
T2 construct: expressed in transfected cells
T2 sequence (P31644 32-462): T1 sequence (P31644 32-462)
T2 sequence (P47870 25-512 partner limits assumed): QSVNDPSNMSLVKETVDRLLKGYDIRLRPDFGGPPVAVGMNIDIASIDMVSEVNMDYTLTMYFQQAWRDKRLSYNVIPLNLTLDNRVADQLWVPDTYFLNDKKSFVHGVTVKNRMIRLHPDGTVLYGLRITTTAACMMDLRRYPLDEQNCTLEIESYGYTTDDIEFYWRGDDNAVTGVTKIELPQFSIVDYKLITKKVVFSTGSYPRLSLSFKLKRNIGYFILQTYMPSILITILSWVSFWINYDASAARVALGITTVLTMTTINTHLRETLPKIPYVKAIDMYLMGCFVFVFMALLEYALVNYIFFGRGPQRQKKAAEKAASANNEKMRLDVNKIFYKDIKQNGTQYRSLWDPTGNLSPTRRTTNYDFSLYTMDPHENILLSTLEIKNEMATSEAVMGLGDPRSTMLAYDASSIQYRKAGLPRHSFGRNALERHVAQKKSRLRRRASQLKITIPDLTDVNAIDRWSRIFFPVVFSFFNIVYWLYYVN
T2 sequence (P18507 40-467 limits assumed): T1 sequence (P18507 40-467 limits assumed)
Method in brief: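 Xenopus oocytes injected with 1 ng α5:β2:γ2 cDNA (1:1:10 by weight) and recorded on day 2 by two-electrode voltage clamp under MBS superfusion. Potentiation (%) = Itest/IGABA at EC20 GABA; each oocyte used for one concentration only.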

MAM-treated rats = settings: cited from earlier work
[1] = probe test 24 hr. after training

For `CC1(C)CC(=O)c2c(SCCCO)sc(-c3nccs3)c2C1` [6,6 dimethyl-3-(3-hydroxypropyl)thio-1-(thiazol-2-yl)-6,7-dihydro-2-benzothiophen-4(5H)-one], the “time to find the escape platform” value (aged-impaired (AI) rats; beginning of training (block 1)) was “about 24 seconds”, the “time to find the escape platform” value (aged-impaired (AI) rats; end of training (block 4)) was “about 9.6 seconds” and the “number of crossings of target annulus compared to opposite annulus” value (aged-impaired (AI) rats; [1]) was “more often”. For the same compound, the “time in target annulus compared to opposite annulus” value (aged-impaired (AI) rats; [1]) was “significantly more time in the target annulus”.

Compound `COC1C=C2C(=CC1)n1cnc(-c3noc(C(C)C)n3)c1Cn1c(COc3ccccc3Cl)nnc12` (centres unmarked) [Compound 175] has a Ki (α5β3γ2 GABAA receptors) of under 100 nM and an activation at 0.1 µM (α5β2γ2 subtype GABAAR) of 20 to 50%.

In the case of `C#Cc1ccc2c(c1)-n1nnc(COC)c1Cc1c(C3=N[C@@H](C(C)C)CO3)ncn1-2` [Compound 384], the Ki (α5β3γ2 GABAA receptors) is reported as 100 to 1000 nM.

Work on `COCc1nnc2n1Cc1c(-c3ncco3)ncn1-c1cc(Cl)ccc1-2` [Compound 458] yielded a Ki (α5β3γ2 GABAA receptors; reported as ranges) of over 1000 nM.

For `C#Cc1ccc2c(c1)C(c1ccccc1F)=N[C@H](C)c1c(C(=O)OCC)ncn1-2` [SH-053-2′F—R—CH3], the “number of spontaneously active DA neurons in the ventral tegmental area (VTA)” value (MAM-treated rats; MAM rats, systemic or infused into ventral HPC, to levels of saline-treated rats) is listed as “reduces”, the “increased locomotor response to amphetamine” value (MAM-treated rats; MAM-treated rats) is listed as “reduced” and the “cortical-evoked responses of HPC neurons” value (MAM-treated rats; saline-treated and MAM-treated animals) is listed as “diminished”.
